Test results reported in US11485713B2, “Androgen receptor modulators and methods for their use” (ESSA Pharma, Inc., priority 2018, dated 2022).

Tests used:
[1] = Microsomal stability assay, HLM; assay type: in vitro ADME; settings: human, pH 7.4, 1 μM test compound, 0.5 mg/mL liver microsomes protein, 37° C., 0-60 min, read-out: HLM +/− NADPH: Clint (μL/min/mg protein)
Source text: (§1) Microsomal Stability Assay: Microsomal stability assay is a widely used in vitro model to characterize the metabolic conversion by phase I enzymes, such as cytochrome P450 (CYP) enzymes. Since metabolism is known to be highly variable in different species, microsomal stability assay is commonly run in multiple species. Metabolic stability of testing compound can be evaluated using human, rat, mouse, or other animal liver or intestine microsomes to predict intrinsic clearance.
(§2) The assay was carried out in 96-well microtiter plates at 37° C. Reaction mixtures (25 μL) contained a final concentration of 1 μM test compound, 0.5 mg/mL liver microsomes protein, and 1 mM NADPH and/or 1 mM UDPGA (with alamethicin) in 100 mM potassium phosphate, pH 7.4 buffer with 3 mM MgCl2. The incubation was done with N=1, but duplicate incubation at each time point can be prepared if necessary. At each of the time points (for example, 0, 15, 30, and 60 minutes), 150 μL of quench solution (100% acetonitrile with 0.1% formic acid) with internal standard was transferred to each well. Besides the zero minute controls, mixtures containing the same components except the NADPH can also be prepared as the negative control. Verapamil was included as a positive control to verify assay performance. Plates were sealed, vortexed, and centrifuged at 4° C. for 15 minutes at 4000 rpm. The supernatant is transferred to fresh plates for LC/MS/MS analysis.
(§3) Summarized conditions: [Compound]=1 μM, [LM]=0.5 mg/mL, [NADPH]=1 mM and/or [UDPGA]=1 mM, Buffer=100 mM Potassium Phosphate, pH 7.4 with 3 mM MgCl2, Time=0, 15, 30, and 60 min, and Temperature=37° C.
(§4) All samples were analyzed on LC/MS/MS using an AB Sciex API 4000 instrument, coupled to a Shimadzu LC-20AD LC Pump system. Analytical samples were separated using a Waters Atlantis T3 dC18 reverse phase HPLC column (20 mm×2.1 mm) at a flow rate of 0.5 mL/min. The mobile phase consisted of 0.1% formic acid in water (solvent A) and 0.1% formic acid in 100% acetonitrile (solvent B).
(§5) The extent of metabolism is calculated as the disappearance of the test compound, compared to the 0-min time incubation. Initial rates are calculated for the compound concentration and used to determine half-life (t½) values and subsequently, the intrinsic clearance (Clint). Clint=(0.693)(1/t½ (min))(g of liver/kg of body weight)(mL incubation/mg of microsomal protein)(45 mg of microsomal protein/g of liver weight)

[2] = Microsomal stability assay, MLM; assay type: in vitro ADME; settings: mouse, pH 7.4, 1 μM test compound, 0.5 mg/mL liver microsomes protein, 37° C., 0-60 min, read-out: MLM +/− NADPH: Clint (μL/min/mg protein)
Source text: as §1, §2, §3, §4, §5

[3] = Hepatocyte stability assay, MH; assay type: in vitro ADME; settings: mouse, cryopreserved hepatocytes, 1 μM test compound, 0.5 million cells/mL hepatocytes, 37° C., 0-180 min, read-out: MH +/− NADPH: Clint (μL/min/million cells)
Source text: Hepatocyte Stability Assay: The […] of in vitro intrinsic clearance (Clint) for drug candidates in the early discovery stage is common practice in the pharmaceutical industry. The Clint values of drug candidates can help to confirm whether metabolism is the main clearance pathway when it is compared with the total body clearance in vivo. Hepatocytes are among the routinely used in vitro systems for measuring clearance. Hepatocytes have been reported to retain most of the phase I and phase II metabolic activities, and therefore, it is a useful tool to estimate the intrinsic clearance for potential drug candidates.
Metabolic stability of testing compound were be evaluated using human and mouse hepatocytes and can also be use rat, mouse, or other animal hepatocytes to predict intrinsic clearance. Cryopreserved hepatocytes were removed from the liquid nitrogen tank and thawed in a 37° C. water bath. As soon as the cells pulled away from the vial wall, they were decanted into 48 ml of warm HT medium. Cells were centrifuged for four minutes at 420 rpm (50 g). After removing the supernatant, pellet was re-suspended in warm DMEM medium. Cell density was counted by a hemacytometer.
The assay was carried out in 96-well microtiter plates. Compounds were incubated for 0, 60, 120, and 180 minutes at 37° C. with hepatocytes. Reaction mixtures (50 μL) contained a final concentration of 1 μM test compound, 0.5 million cells/mL hepatocytes in the DMEM medium. At each of the time points (for example, 0, 1, 2, and 3 hours), 200 μL of quench solution (100% acetonitrile with 0.1% formic acid) with internal standard was transferred to each well. Midazolam was included as a positive control to verify assay performance. Plates were sealed and centrifuged at 4° C. for 15 minutes at 4000 rpm. The supernatant is transferred to fresh plates for LC/MS/MS analysis.
Summarized conditions (customizable): [Compound]=[…], Positive control: midazolam and/or naloxone, [Hepatocyte]=0.5 million cells/Ml, time=0, 60, 120, and 180 m t=37° C.
as §4, with “ABSciex” for “AB Sciex”
The extent of metabolism was calculated as the disappearance of the test compound, compared to the 0-min control reaction incubations. Initial rates were calculated for the compound concentration and used to determine t½ values and subsequently, the intrinsic clearance, Clint. Clint=(0.693)(1/t½ (min))(mL incubation/million cells)

LNCaP ARE-Luc = assay: Luciferase assay in LNCaP cell lysates (LNCaP ARE-Luc); assay type: cell-based; settings: Homo sapiens, Firefly Luciferase Assay System, read-out: LNCaP ARE-Luc % inhibition IC50 Ranges
Description: Lysates were thawed on ice then collected into V-bottom 96-well tissue culture plates. Lysates were centrifuged at 4° C. for 5 minutes at 4000 rpm. To measure luminescence of LNCaP cell lysates the Firefly Luciferase Assay System (Promega) was employed, according to manufacturer's protocol. Relative luminescence units (RLU) in cell lysates were detected for 10 seconds using Promega GoMax-Multi Detection Luminometer (Promega).
Statistical analyses were performed using GraphPad Prism (Version 6.01 for Windows; La Jolla, Calif., USA). Comparisons between treatment and control groups were compared using Two-Way ANOVA with post-hoc Dunnett's and Tukey's tests. Differences were considered statistically significant at P values less than 0.05. Densitometric quantification of relative AR levels was determined by Image.

Row | Structure (SMILES) | microsomal CLint at 1 μM [1] | microsomal CLint at 1 μM [2] | hepatocyte CLint at 1 μM [3] | IC50 (LNCaP ARE-Luc)
1 | COCC(=O)COc1ccc(C(C)(C)c2cc(Cl)c(OC[C@H](O)CCl)c(Cl)c2)cc1 [A56(S), (S)-1-(4-(2-(3,5-dichloro-4-(3-chloro-2-hydroxypropoxy)phenyl)propan-2-yl)phenoxy)-3-methoxypropan-2-one] | ≥ 48 µL/min/mg | ≥ 48 µL/min/mg | ≥ 18 µL/min/1e6 cells | ≥ 250 nM
2 | CC(C)(c1ccc(OCC(=O)CNS(C)(=O)=O)cc1)c1cc(Cl)c(OC[C@H](O)CCl)c(Cl)c1 [A51(S), (S)—N-(3-(4-(2-(3,5-dichloro-4-(3-chloro-2-hydroxypropoxy)phenyl)propan-2-yl)phenoxy)-2-oxopropyl)methanesulfonamide] | ≥ 48 µL/min/mg | – | ≥ 18 µL/min/1e6 cells | < 100 nM
3 | COCC(=O)COc1ccc(C(C)(C)c2cc(Cl)c(OCC(C)(O)CCl)c(Cl)c2)cc1 (stereo not drawn) [Compound A60] | ≥ 48 µL/min/mg | ≥ 48 µL/min/mg | ≥ 18 µL/min/1e6 cells | –
4 | COCC(=O)COc1ccc(C(F)(F)c2cc(Cl)c(OCC(O)CCl)c(Cl)c2)cc1 (stereo not drawn) [Compound A58] | ≥ 48 µL/min/mg | ≥ 48 µL/min/mg | ≥ 18 µL/min/1e6 cells | –
5 | COCC(=O)COc1ccc(Cc2cc(Cl)c(OCC(O)CCl)c(Cl)c2)cc1 (stereo not drawn) [Compound A57] | ≥ 48 µL/min/mg | ≥ 48 µL/min/mg | ≥ 18 µL/min/1e6 cells | –

Next, values leading:

Row | microsomal CLint at 1 μM [1] | microsomal CLint at 1 μM [2] | hepatocyte CLint at 1 μM [3] | IC50 (LNCaP ARE-Luc) | Structure (SMILES)
6 | ≥ 48 µL/min/mg | ≥ 48 µL/min/mg | ≥ 18 µL/min/1e6 cells | 100 to 250 nM | CC(C)(c1ccc(OCC(=O)CNS(C)(=O)=O)cc1)c1cc(Cl)c(OCCCBr)c(Cl)c1 [Compound A61]
7 | ≥ 48 µL/min/mg | ≥ 48 µL/min/mg | ≥ 18 µL/min/1e6 cells | – | COCC(=O)COc1ccc(C(C)(C)c2cc(Cl)c(OCCCCl)c(Cl)c2)cc1 [Compound A59]
8 | ≥ 48 µL/min/mg | ≥ 48 µL/min/mg | ≥ 18 µL/min/1e6 cells | – | CC(C)(c1ccc(OCC(=O)CS(C)(=O)=O)cc1)c1cc(Cl)c(OCC(O)CCl)c(Cl)c1 (stereo not drawn) [Compound A54]
9 | ≥ 48 µL/min/mg | – | ≥ 18 µL/min/1e6 cells | < 100 nM | CC(C)(c1ccc(OCC(=O)CNS(C)(=O)=O)cc1)c1cc(Cl)c(OCCCCl)c(Cl)c1 [Compound A31, N-(3-(4-(2-(3,5-dichloro-4-(3-chloropropoxy)phenyl)propan-2-yl)phenoxy)-2-oxopropyl)methanesulfonamide]
10 | ≥ 48 µL/min/mg | ≥ 48 µL/min/mg | ≥ 18 µL/min/1e6 cells | ≥ 250 nM | CC(C)(c1ccc(OCC(=O)CS(C)(=O)=O)cc1)c1cc(Cl)c(OCCCCl)c(Cl)c1 [Compound A55, 1-(4-(2-(3,5-dichloro-4-(3-chloropropoxy)phenyl)propan-2-yl)phenoxy)-3-(methylsulfonyl)propan-2-one]
